From article PMC4516231 (Journal of pharmaceutical sciences, 2012) come the findings set out here.

Series [1] in a line: Aqueous solubility in distilled–deionized water. The format is physicochemical. The settings on record: for Reduction in solubility: DDW, relative to CDF; for Reduction in solubility / Solubility in DDW: 37°C; for Solubility in DDW: distilled–deionized water, 24 h.
The nature of series [2]: Tissue. The class given is in vitro ADME, rabbit. The note with it: relative to parent CDF.

In brackets after ≈: the same amount, converted by molar mass.

In the case of `CCCCCCOP1(=O)COC(Cn2ccc(N)nc2=O)CO1` (stereo not drawn) [C6-cCDF, C6-cyclic Cidofovir], in series [1], the Reduction in solubility entry is on record as “about 56 fold” and the “Solubility in DDW” value is 1.27 ± 0.48 mg/mL (≈ 3.68 mM).
Consider `CCCCCCCCCCCCOP1(=O)CO[C@@H](Cn2ccc(N)nc2=O)CO1` (stereo partly drawn) [C12-cCDF, C12-cyclic Cidofovir], for which, in series [1], the Reduction in solubility was around 74 fold and the “Solubility in DDW” value was 0.95 ± 0.37 mg/mL (≈ 2.21 mM).
`Nc1ccn(C[C@@H](CO)OCP(=O)(O)O)c(=O)n1` [CDF, Cidofovir, reference compound] returned a solubility at 24 h in series [1] (distilled-deionized water) of 72.4 ± 3.33 mg/mL (≈ 259 mM). Besides, the “Fold Increase in retina–choroid partition coefficient” value in series [2] stood at 1 fold.
